What all share (assay): MTT assay for cell viability, IC50 determination
What all share (assay type): cell-based

Assay [1] has as its system WHCO6 oesophageal carcinoma cell line. To be noted: Homo sapiens, 48 hours. In a few lines: (§1)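 IC50 values derive from curves of absorbance at 595 nm, read the day after solubilising MTT formazan with 10% SLS in 0.01 M HCl. MTT had been added following 48 h treatment with graded compound concentrations and left for 4 h.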
Assay [2] deals with MDA-MB-231 breast cancer cell line. To be noted: Homo sapiens, 48 hours, MTT. A digest of the protocol:
as §1

Assay [3] concerns KYSE180 oesophageal cancer cell line. The following applies: Homo sapiens, KYSE-180, 48 hours. In a few lines: as §1
Assay [4] deals with HeLa cervical cancer cell line. The following applies: HeLa, 48 hours, MTT, read-out: IC50. In a few lines:
as §1

Assay [5] relates to WHCO1 oesophageal carcinoma cell line. To be noted: Homo sapiens, 48 hours. In a few lines: as §1

Like-named read-outs stand apart in the source and are kept apart here.

These results are taken from patent US10220033B2, “Substituted benzoxazepine for cancer therapy” (University of Cape Town, priority 2014, dated 2019).

Regarding `CN(C)CCCn1c(N)c(-c2nc3ccccc3[nH]2)c2nc3ccccc3nc21` [Compound A, 3-(1H-benzimidazol-2-yl)-1-(3-dimethylaminopropyl)pyrrolo[5,4-b]quinoxalin-2-amine], the IC50 (usually the concentration at which inhibition is half-maximal) was found to be 12 µM in assay [1]; 7.92 µM in assay [2]; 15.8 µM in assay [3]; 8.77 µM in assay [4]; 10.2 µM in assay [4] (Homo sapiens, 48 h); 10.6 µM in assay [5].
